# Experimental data taken from patent US9737476B2, “Cosmetic use of an albizia julibrissin extract and corresponding topical composition” (Sederma, priority 2011, dated 2017).
# Tests used:
# [1] = tested on: Fibroblasts; assay: Accumulation of lipofuscin AGE-pigment (dityrosine marker); format: cell-based, human; settings: Trolox 500 μM; p < 0.01
# From the text: Principle and protocol: MGO is indirectly involved in the production of another group of toxins called lipofuscin. This pigment, which is seen on skin sections, is yellow in colour. It is poorly characterised as it is formed from an aggregate of different damaged cell components. Reduced functioning of the proteasome allows it to accumulate. Glycation (and therefore alteration) of the proteasome promotes the accumulation of this toxic pigment.
# The same “fatiguing” cell stress as above in point 2a was used, alternating two rest periods (+/− of Albizia Julibrissin extract) and 2 periods of stress (+/− the Albizia Julibrissin extract with 500 μM microns of MGO). At the end of the second glycating stress, a dosage of the lipofuscin marker, the dityrosine was performed on the cell and reduced to the number of cells.
# [2] = tested on: MMP1; assay: Metalloproteinase in culture media after cigarette smoke extract stress (ELISA); format: cell-based, human; settings: Trolox 500 μM
# Experimental: Human dermal fibroblasts are cultured until confluence. Then cells are contacted with or without the test products during 24 hours. Then cells are stressed with an extract of cigarette smoke with or without the test products. After a last incubation with or without the test products, metallo-proteinases MMP1 and MMP2 present in the culture media are measured by ELISA and reduced to the number of cells (evaluated with the Hoescht reagent).
# [3] = tested on: soluble bovine elastin; assay: Non enzymatic glycation of elastin with fructose (fluorescence); format: biochemical
# Experimental: Non-enzymatic glycation occurring between a protein and a reducing sugar like fructose or glucose is a spontaneous and slow reaction that can be accelerated by heat. In this test, the protein is soluble bovine elastin and the reducing sugar is fructose. They are incubated with or without test products at 50° C. for 9 days. Final products resulting from glycation may be quantified by fluorescence (λex=360 nm and λem=460 nm).
# [4] = tested on: human dermal fibroblasts (HDF); assay: Measurement of carboxymethyl-lysine (CML) released by fibroblasts after MGO glycating stress (Elisa); format: cell-based; settings: aminoguanidine 0.03%; p < 0.01
# Experimental: For the tests achieved on cell cultures, a hydro-glycolic extract obtained according to Example A) above comprising 2% of albizine was used at 0.006% diluted in aqueous excipients, of the type of cell culture media.
# Principle and protocol: CML, a specific type of AGEs, accumulates during time in particular on the dermis proteins synthesized by fibroblasts. In vitro, on fibroblasts in culture, it is possible to accelerate this phenomenon by a glycating stress.
# 500 μM of methylglyoxal (MGO) were applied to confluent human dermal fibroblasts (HDF) to provoke AGE formation. After this glycating contact at 37° C. during 4 days, the MGO was removed from the cultures by rinsing and the Albizia Julibrissin extract was applied for 5 days. The supernatants were then removed for Elisa measurement of CML released by the fibroblasts. Cells were counted in parallel from the cell layers. Two independent tests were performed.
molecule,measurement,setting,value
Cc1c(C)c2c(c(C)c1O)CCC(C)(C(=O)O)O2 (stereo not drawn) [Trolox],"% change in dityrosine, positive MGO control",[1],*AFU: Arbitrary fluorescence unit; positive MGO control: Trolox 500 μM: −61.1% (p < 0.01)
same,MMP1,[2]; control stress 9200 +/− 1590,3962 +/− 759 ng/10^6 cells
same,% change in MMP1 vs. control stress,[2]; p < 0.05,−57%; p < 0.05
N=C(N)NN [aminoguanidine],% change in glycation vs. control,"[3]; aminoguanidine 0.03%, p < 0.01",Aminoguanidine 0.03%: −99%; p < 0.01
same,"% change in CML, positive control",[4],Positive control aminoguanidine 0.03%; −41% CML; (p < 0.01).
Darutoside,Glycation,"[3]; 15 ppm (combination: 15 ppm Darutoside + 15 ppm extract), elastin + fructose, 50° C., 9 days, control 6096 +/− 438",5843 +/− 383 UFA
